Test results published in patent publication US20240239781A1, “1H-PYRAZOLE DERIVATIVES AS SIGMA LIGANDS” (ACONDICIONAMIENTO TARRASENSE, priority 2021, published 2024).

Columns and labels:
human σ2/TMEM97 receptor = molecular target: T1, human σ2/TMEM97 receptor (Homo sapiens, UniProt Q5BJF2); assay: Binding assay to human σ2/TMEM97 receptor ([3H]-DTG, transfected HEK-293 membranes); settings: class scale, read-out: Binding σ-2 Ki
T1 construct: expressed in transfected cells; host or cells: HEK-293
T1 sequence (Q5BJF2 whole entry): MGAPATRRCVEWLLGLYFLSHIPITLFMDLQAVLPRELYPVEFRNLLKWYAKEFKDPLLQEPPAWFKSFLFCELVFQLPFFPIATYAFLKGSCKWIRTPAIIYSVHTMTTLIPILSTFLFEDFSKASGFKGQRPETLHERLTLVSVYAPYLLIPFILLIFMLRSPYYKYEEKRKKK
How it was run: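 Membranes (15 μg) from transfected HEK-293 incubated 120 min at 25 °C with 10 nM [3H]-DTG in 50 mM Tris-HCl pH 8.0; nonspecific binding with 10 μM haloperidol. Filtration and scintillation counting; % inhibition at 1 or 10 μM, or Ki from five concentrations.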

human σ1 receptor = molecular target: T2, human σ1 receptor (Homo sapiens, UniProt Q99720); assay: Human σ1 receptor radioligand assay ([3H](+)-pentazocine, transfected HEK-293 membranes); settings: class scale, read-out: Binding σ-1 Ki
T2 construct: expressed in transfected cells; host or cells: HEK-293
T2 sequence (Q99720 whole entry): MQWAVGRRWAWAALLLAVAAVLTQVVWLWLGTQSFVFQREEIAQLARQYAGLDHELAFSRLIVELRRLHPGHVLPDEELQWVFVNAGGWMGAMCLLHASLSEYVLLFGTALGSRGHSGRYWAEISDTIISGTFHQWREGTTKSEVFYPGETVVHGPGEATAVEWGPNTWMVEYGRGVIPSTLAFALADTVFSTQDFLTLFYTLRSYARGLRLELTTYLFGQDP
How it was run: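 Membranes (7 μg) from transfected HEK-293 cells were incubated with 5 nM [3H](+)-pentazocine in 50 mM Tris-HCl, pH 8, for 120 minutes at 37° C, with 10 μM haloperidol defining non-specific binding. Bound radioactivity was filtered and counted by scintillation. Results are % inhibition at 1 or 10 μM or Ki from five concentrations.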

Ki (human σ2/TMEM97 receptor) [nM]	Ki (human σ1 receptor) [nM]	SMILES
< 100	100 to 500	Cc1cccc(-c2nn(C)c(Cl)c2C(=O)NC2CCN(CCC(C)(C)C)CC2)n1 [Example 168, 5-Chloro-N-(1-(3,3-dimethylbutyl)piperidin-4-yl)-1-methyl-3-(6-methylpyridin-2-yl)-1H-pyrazole-4-carboxamide]
< 100	> 1000	Cc1cc(-c2nn(C)c(Cl)c2C(=O)N2CC[C@]3(C2)C[C@H](NCCC(C)(C)C)C3)no1 [Example 169, (5-Chloro-1-methyl-3-(5-methylisoxazol-3-yl)-1H-pyrazol-4-yl)((2s,4r)-2-((3,3-dimethylbutyl)amino)-6-azaspiro[3.4]octan-6-yl)methanone]
< 100	100 to 500	Cc1cc(-c2nn(-c3ccncc3)c(Cl)c2C(=O)N2CCC3(CCN(CCC(C)(C)C)CC3)CC2)no1 [Example 170, (5-Chloro-3-(5-methylisoxazol-3-yl)-1-(pyridin-4-yl)-1H-pyrazol-4-yl)(9-(3,3-dimethylbutyl)-3,9-diazaspiro[5.5]undecan-3-yl)methanone]
< 100	100 to 500	CCn1nc(-c2ccon2)c(C(=O)N2CCC3(CCN(CCC(C)(C)C)CC3)CC2)c1Cl [Example 171, (5-Chloro-1-ethyl-3-(isoxazol-3-yl)-1H-pyrazol-4-yl)(9-(3,3-dimethylbutyl)-3,9-diazaspiro[5.5]undecan-3-yl)methanone]
< 100	500 to 1000	Cc1cc(-c2nn(-c3ccccn3)c(Cl)c2C(=O)N2CCC3(CCN(CCC(C)(C)C)CC3)CC2)no1 [Example 172, (5-Chloro-3-(5-methylisoxazol-3-yl)-1-(pyridin-2-yl)-1H-pyrazol-4-yl)(9-(3,3-dimethylbutyl)-3,9-diazaspiro[5.5]undecan-3-yl)methanone]
< 100	500 to 1000	Cn1nc(-c2ccccn2)c(C(=O)N2CCC3(CCN(CCC(C)(C)C)CC3)CC2)c1Cl [Example 173, (5-Chloro-1-methyl-3-(pyridin-2-yl)-1H-pyrazol-4-yl)(9-(3,3-dimethylbutyl)-3,9-diazaspiro[5.5]undecan-3-yl)methanone]
< 100	500 to 1000	Cc1cc(-c2nn(C)c(Cl)c2C(=O)N2CCC3(CC2)CC(NCCC(C)(C)C)C3)no1 [Example 174, (5-Chloro-1-methyl-3-(5-methylisoxazol-3-yl)-1H-pyrazol-4-yl)(2-((3,3-dimethylbutyl)amino)-7-azaspiro[3.5]nonan-7-yl)methanone]
< 100	500 to 1000	Cc1cc(-c2nn(C)c(Cl)c2C(=O)N2CCC3(CCN(Cc4ccccc4)CC3)CC2)no1 [Example 175, (9-Benzyl-3,9-diazaspiro[5.5]undecan-3-yl)(5-chloro-1-methyl-3-(5-methylisoxazol-3-yl)-1H-pyrazol-4-yl)methanone]
< 100	> 1000	CCc1nc(C)c(-c2nn(C)c(Cl)c2C(=O)N2CCC3(CCN(CCC(C)(C)C)CC3)CC2)o1 [Example 176, (5-Chloro-3-(2-ethyl-4-methyloxazol-5-yl)-1-methyl-1H-pyrazol-4-yl)(9-(3,3-dimethylbutyl)-3,9-diazaspiro[5.5]undecan-3-yl)methanone]
< 100	100 to 500	CC(C)c1cc(-c2nn(C)c(Cl)c2C(=O)N2CCC3(CCN(CCC(C)(C)C)CC3)CC2)no1 [Example 177, (5-Chloro-3-(5-isopropylisoxazol-3-yl)-1-methyl-1H-pyrazol-4-yl)(9-(3,3-dimethylbutyl)-3,9-diazaspiro[5.5]undecan-3-yl)methanone]
100 to 500	> 1000	Cn1cc(-c2nn(C)c(Cl)c2C(=O)N2CCC3(CCN(CCC(C)(C)C)CC3)CC2)cn1 [Example 178, (5-Chloro-1,1′-dimethyl-1H,1′H-[3,4′-bipyrazol]-4-yl)(9-(3,3-dimethylbutyl)-3,9-diazaspiro[5.5]undecan-3-yl)methanone]
< 100	> 1000	CCn1ccc(-c2nn(C)c(Cl)c2C(=O)N2CCC3(CCN(CCC(C)(C)C)CC3)CC2)n1 [Example 179, (5-Chloro-1′-ethyl-1-methyl-1H,1′H-[3,3′-bipyrazol]-4-yl)(9-(3,3-dimethylbutyl)-3,9-diazaspiro[5.5]undecan-3-yl)methanone]
< 100	100 to 500	Cn1nc(-c2cccc(C(F)(F)F)n2)c(C(=O)N2CCC3(CCN(CCC(C)(C)C)CC3)CC2)c1Cl [Example 180, (5-Chloro-1-methyl-3-(6-(trifluoromethyl)111ndecane-2-yl)-1H-pyrazol-4-yl)(9-(3,3-dimethylbutyl)-3,9-diazaspiro[5.5]111ndecane-3-yl)methanone]
100 to 500	> 1000	Cn1ccc(-c2nn(C)c(Cl)c2C(=O)N2CCC3(CCN(CCC(C)(C)C)CC3)CC2)n1 [Example 181, (5-Chloro-1,1′-dimethyl-1H,1′H-[3,3′-bipyrazol]-4-yl)(9-(3,3-dimethylbutyl)-3,9-diazaspiro[5.5]undecan-3-yl)methanone]
< 100	100 to 500	CCCn1nc(-c2cc(C)on2)c(C(=O)N2CCC3(CCN(CCC(C)(C)C)CC3)CC2)c1Cl [Example 182, (5-Chloro-3-(5-methylisoxazol-3-yl)-1-propyl-1H-pyrazol-4-yl)(9-(3,3-dimethylbutyl)-3,9-diazaspiro[5.5]undecan-3-yl)methanone]
< 100	500 to 1000	Cc1cc(-c2nn(C(C)C)c(Cl)c2C(=O)N2CCC3(CCN(CCC(C)(C)C)CC3)CC2)no1 [Example 183, (5-Chloro-1-isopropyl-3-(5-methylisoxazol-3-yl)-1H-pyrazol-4-yl)(9-(3,3-dimethylbutyl)-3,9-diazaspiro[5.5]undecan-3-yl)methanone]
< 100	100 to 500	CCn1nc(-c2cc(C)on2)c(C(=O)N2CC3(CCN(CCC(C)(C)C)CC3)C2)c1Cl [Example 184, (5-Chloro-1-ethyl-3-(5-methylisoxazol-3-yl)-1H-pyrazol-4-yl)(7-(3,3-dimethylbutyl)-2,7-diazaspiro[3.5]nonan-2-yl)methanone]
< 100	100 to 500	CCCn1nc(-c2cc(C)on2)c(C(=O)N2CC3(CCN(CCC(C)(C)C)CC3)C2)c1Cl [Example 185, (5-Chloro-3-(5-methylisoxazol-3-yl)-1-propyl-1H-pyrazol-4-yl)(7-(3,3-dimethylbutyl)-2,7-diazaspiro[3.5]nonan-2-yl)methanone]
< 100	100 to 500	CCOc1cccc(-c2nn(C)c(Cl)c2C(=O)N2CCC3(CCN(CCC(C)(C)C)CC3)CC2)n1 [Example 186, (5-Chloro-3-(6-ethoxypyridin-2-yl)-1-methyl-1H-pyrazol-4-yl)(9-(3,3-dimethylbutyl)-3,9-diazaspiro[5.5]undecan-3-yl)methanone]
< 100	500 to 1000	CCn1nc(-c2ccon2)c(C(=O)N2CC3(CCN(CCC(C)(C)C)CC3)C2)c1Cl [Example 187, (5-Chloro-1-ethyl-3-(isoxazol-3-yl)-1H-pyrazol-4-yl)(7-(3,3-dimethylbutyl)-2,7-diazaspiro[3.5]nonan-2-yl)methanone]
< 100	500 to 1000	Cc1cc(-c2nn(C(C)C)c(Cl)c2C(=O)N2CC3(CCN(CCC(C)(C)C)CC3)C2)no1 [Example 188, (5-Chloro-1-isopropyl-3-(5-methylisoxazol-3-yl)-1H-pyrazol-4-yl)(7-(3,3-dimethylbutyl)-2,7-diazaspiro[3.5]nonan-2-yl)methanone]
< 100	500 to 1000	Cc1cccc(-c2nn(C)c(Cl)c2C(=O)N2CCC3(CCN(CCC(C)(C)C)CC3)CC2)n1 [Example 189, (5-Chloro-1-methyl-3-(6-methylpyridin-2-yl)-1H-pyrazol-4-yl)(9-(3,3-dimethylbutyl)-3,9-diazaspiro[5.5]undecan-3-yl)methanone]
< 100	100 to 500	CCn1nc(-c2cc(C3CC3)on2)c(C(=O)N2CCC3(CCN(CCC(C)(C)C)CC3)CC2)c1Cl [Example 190, (5-Chloro-3-(5-cyclopropylisoxazol-3-yl)-1-ethyl-1H-pyrazol-4-yl)(9-(3,3-dimethylbutyl)-3,9-diazaspiro[5.5]undecan-3-yl)methanone]
< 100	100 to 500	Cn1nc(-c2cc(C3CC3)on2)c(C(=O)N2CCC3(CCN(CCC(C)(C)C)CC3)CC2)c1Cl [Example 191, (5-Chloro-3-(5-cyclopropylisoxazol-3-yl)-1-methyl-1H-pyrazol-4-yl)(9-(3,3-dimethylbutyl)-3,9-diazaspiro[5.5]undecan-3-yl)methanone]
< 100	100 to 500	CCn1nc(-c2cc(C(C)C)on2)c(C(=O)N2CCC3(CCN(CCC(C)(C)C)CC3)CC2)c1Cl [Example 192, (5-Chloro-1-ethyl-3-(5-isopropylisoxazol-3-yl)-1H-pyrazol-4-yl)(9-(3,3-dimethylbutyl)-3,9-diazaspiro[5.5]undecan-3-yl)methanone]
< 100	500 to 1000	Cc1cc(-c2nn(C)c(Cl)c2C(=O)N2CCCC3(CN(CCC(C)(C)C)C3)C2)no1 [Example 193, (5-Chloro-1-methyl-3-(5-methylisoxazol-3-yl)-1H-pyrazol-4-yl)(2-(3,3-dimethylbutyl)-2,6-diazaspiro[3.5]nonan-6-yl)methanone]
< 100	500 to 1000	CCn1nc(-c2cc(C)on2)c(C(=O)N2CCCC3(CN(CCC(C)(C)C)C3)C2)c1Cl [Example 194, (5-Chloro-1-ethyl-3-(5-methylisoxazol-3-yl)-1H-pyrazol-4-yl)(2-(3,3-dimethylbutyl)-2,6-diazaspiro[3.5]nonan-6-yl)methanone]
